Patent US20040082551A1, “Novel pyrazoles and their use as p38 kinase inhibitors” (priority 2002, published 2004)
Values joined by “and” are separate entries in the source; they are usually repeats but may differ in a detail not shown here. Equal entries are not always repeated. Structures can show the parent of a compound that is named as a salt.

Biological target: T1, human p38 kinase alpha (Homo sapiens, UniProt Q16539)
T1 construct: The coding region of the human p38α cDNA was obtained by PCR-amplification from RNA isolated from the human monocyte cell line THP.1; made in house; host or cells: E. coli DH10B
Assay: In vitro p38 kinase inhibition analysis (PHAS-I 32P-ATP or EGFRP 33P-ATP format)
Assay type: biochemical
Settings: Table 1; compounds of Examples 1-28; one of two in vitro assay methods; 4-methylbenzenesulfonate; read-out: p38α Kinase Inhibition (IC50 in μM)
Procedure: The ability of compounds to inhibit human p38 kinase alpha was evaluated using one of two in vitro assay methods. In the first method, activated human p38 kinase alpha phosphorylates a biotinylated substrate, PHAS-I (phosphorylated heat and acid stable protein-insulin inducible), in the presence of gamma ^32P-ATP (^32P-ATP). PHAS-I was biotinylated before the assay, and provided a means of capturing the substrate which was phosphorylated during the assay. p38 Kinase was activated by MKK6. Compounds were tested in 10 fold serial dilutions over the range of 100 μM to 0.001 μM using 1% DMSO. Each concentration of inhibitor was tested in triplicate.
All reactions were carried out in 96 well polypropylene plates. Each reaction well contained 25 mM HEPES pH 7.5, 10 mM magnesium acetate, and 50 μM unlabeled ATP. […] Activated human p38 kinase alpha was used at 1 μg per 50 μl reaction volume, representing a final concentration of 0.3 μM. Gamma ^32P-ATP was used to follow the phosphorylation of PHAS-I. ^32P-ATP has a specific activity of 3000 Ci/mmol, and was used at 1.2 μCi per 50 μl reaction volume. The reaction proceeded either for one hr or overnight at 30° C.
Following incubation, 20 μl of reaction mixture was transferred to a high capacity streptavidin coated filter plate (SAM-streptavidin-matrix, Promega) prewetted with phosphate buffered saline. The transferred reaction mix was allowed to contact the streptavidin membrane of the Promega plate for 1-2 min. […] Filter plates were air dried and 20 μl of scintillant was added. The plates were sealed and counted.
A second assay format was alternatively employed. This assay is based on p38 kinase alpha being induced phosphorylation of EGFRP (epidermal growth factor receptor peptide, a 21 mer) in the presence of ^33P-ATP. Compounds were tested in 10 fold serial dilutions over the range of 100 μM to 0.001 μM in 10% DMSO. Each concentration of inhibitor was tested in triplicate. Compounds were evaluated in 50 μl reaction volumes in the presence of 25 mM HEPES pH 7.5, 10 mM magnesium acetate, 4% glycerol, 0.4% bovine serum albumin, 0.4 mM DTT, 50 μM unlabeled ATP, 25 μg EGFRP (200 μM), and 0.05 uCi gamma ^33P-ATP. Reactions were initiated by addition of 0.09 μg of activated, purified human GST-p38 kinase alpha. Activation was carried out using GST-MKK6 (5:1,p38:MKK6) for one hr at 30° C. in the presence of 50 μM ATP. Following incubation for 60 min at room temperature, the reaction was stopped by addition of 150 μl of AG 1×8 resin in 900 mM sodium formate buffer, pH 3.0 (1 volume resin to 2 volumes buffer). The mixture was mixed three times with pipetting. Afterward, the resin was allowed to settle. A total of 50 μl of clarified solution head volume was transferred from the reaction wells to Microlite-2 plates. 150 μl of Microscint 40 was then added to each well of the Microlite plate, and the plate was sealed, mixed, and counted.

T1 sequence (Q16539 whole entry): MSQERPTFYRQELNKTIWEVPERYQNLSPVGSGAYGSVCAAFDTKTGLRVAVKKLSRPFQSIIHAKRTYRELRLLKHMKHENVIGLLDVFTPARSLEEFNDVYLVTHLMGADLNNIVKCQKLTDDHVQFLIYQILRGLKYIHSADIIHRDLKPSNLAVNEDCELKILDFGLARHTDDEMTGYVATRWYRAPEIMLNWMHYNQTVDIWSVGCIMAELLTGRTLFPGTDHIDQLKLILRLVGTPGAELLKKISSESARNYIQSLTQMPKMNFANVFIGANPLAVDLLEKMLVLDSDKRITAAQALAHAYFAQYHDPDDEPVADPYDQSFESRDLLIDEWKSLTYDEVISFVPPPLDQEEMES

Structure (SMILES) | IC50 [µM]
C[C@@H](N[C@H]1CC[C@H](c2[nH]nc(-c3ccc(Cl)cc3)c2-c2ccncn2)CC1)c1ccccc1 [Example 2, 4-[3-(4-chlorophenyl)-4-pyrimidin-4-yl-1H-pyrazol-5-yl]-N-[(1R)-1-phenylethyl]-trans-cyclohexanamine 4-methylbenzenesulfonate] | 0.0279

Same assay, conditions: Table 1; compounds of Examples 1-28; one of two in vitro assay methods; Hydrochloride Hydrate; read-out: p38α Kinase Inhibition (IC50 in μM)

IC50 [µM] | Structure (SMILES)
0.0379 | CN(CCO)[C@H]1CC[C@H](c2[nH]nc(-c3ccc(Cl)cc3)c2-c2ccncn2)CC1 [Example 12, 2-[{4-[3-(4-chlorophenyl)-4-pyrimidin-4-yl-1H-pyrazol-5-yl]cyclohexyl)(methyl)amino]ethanol Hydrochloride Hydrate]

Same assay, conditions: Table 1; compounds of Examples 1-28; one of two in vitro assay methods; read-out: p38α Kinase Inhibition (IC50 in μM)

IC50 [µM] | Structure (SMILES)
0.102 | Fc1ccc(CN2CCC(c3[nH]nc(-c4ccc(Cl)cc4)c3-c3ccncn3)CC2)cc1 [Example 19, 4-{3-(4-chlorophenyl)-5-[1-(4-fluorobenzyl)piperidin-4-yl]-1H-pyrazol-4-yl}pyrimidine]
0.0232 | C[C@@H](N[C@H]1CC[C@H](c2[nH]nc(-c3ccc(Cl)cc3)c2-c2ccncn2)CC1)c1ccc(F)cc1 [Example 5, 4-[3-(4-chlorophenyl)-4-pyrimidin-4-yl-1H-pyrazol-5-yl]-N-[(1R)-1-(4-fluorophenyl)ethyl]-trans-cyclohexanamine]
0.0189 | OC1CCCC1N1CCC(c2[nH]nc(-c3ccc(Cl)cc3)c2-c2ccncn2)CC1 (stereo not shown) [Example 17, 2-{4-[3-(4-chlorophenyl)-4-pyrimidin-4-yl-1H-pyrazol-5-yl]piperidin-1-yl}cyclopentanol Fumarate]
0.289 | O[C@H]1CC[C@H](c2[nH]nc(-c3ccc(Cl)cc3)c2-c2ccncn2)CC1 [Example 6, 4-[3-(4-chlorophenyl)-4-pyrimidin-4-yl-1H-pyrazol-5-yl]-trans-cyclohexanol]

Structure (SMILES) | IC50 [µM]
O=C(COP(=O)(O)O)N1CCC(c2[nH]nc(-c3ccc(Cl)cc3)c2-c2ccncn2)CC1 [Example 22, 2-{4-[3-(4-chlorophenyl)-4-pyrimidin-4-yl-1H-pyrazol-5-yl]piperidin-1-yl}-2-oxoethyl Dihydrogen Phosphate] | 0.00607

Same assay, conditions: Table 2; additional pyrazole compounds, Examples 56-169; read-out: p38α Kinase Inhibition (IC50 in μM)

Structure (SMILES) | IC50
CN(C)CCNc1nccc(-c2c(-c3ccc(Cl)cc3F)n[nH]c2C2CCN(C(=O)OC(C)(C)C)CC2)n1 [Example 160] | 4.4 µM
CN(C)CCOc1nccc(-c2c(-c3ccc(Cl)cc3F)n[nH]c2C2CCNCC2)n1 [Example 156] | 0.637 µM and 0.627 µM
O=C(CO)N1CCC(c2[nH]nc(-c3cc(Cl)cc(Cl)c3)c2-c2ccncn2)CC1 [Example 75] | 3.39 µM
C[C@H](O)C(=O)N1CCC(c2[nH]nc(-c3cccc(C(F)(F)F)c3F)c2-c2ccncn2)CC1 [Example 112] | 5.18 µM
O=C(CO)N1CCC(c2[nH]nc(-c3cccc(OC(F)(F)F)c3)c2-c2ccncn2)CC1 [Example 83] | 25.7 µM
COc1cc(Cl)ccc1-c1n[nH]c(C2CCN(C(=O)CO)CC2)c1-c1ccncn1 [Example 79] | 19.3 µM
C[C@@H](N[C@H]1CC[C@H](c2[nH]nc(-c3ccc(Cl)cc3)c2-c2ccncn2)CC1)c1ccccc1 [Example 123] | 0.0427 µM
O=C(CO)N1CCC(c2[nH]nc(-c3ccc(Cl)cc3)c2-c2ccnc(O)n2)CC1 [Example 59] | 15.8 µM
CC(C)(C)OC(=O)N1CCC(c2[nH]nc(-c3ccc(Cl)cc3)c2-c2ccnc(O[C@@H]3CCOC3)n2)CC1 [Example 132] | 3.34 µM
O=C(CO)N1CCC(c2[nH]nc(-c3cc(F)cc(F)c3)c2-c2ccncn2)CC1 [Example 76] | 6.2 µM
CCc1ccc(-c2n[nH]c(C3CCN(C(=O)CO)CC3)c2-c2ccncn2)cc1 [Example 82] | 5.85 µM
C[C@H](O)C(=O)N1CCC(c2[nH]nc(-c3cc(F)cc(C(F)(F)F)c3)c2-c2ccncn2)CC1 [Example 115] | 8.48 µM
O=C(CO)N1CCC(c2[nH]nc(-c3cccc(C(F)(F)F)c3F)c2-c2ccncn2)CC1 [Example 103] | 5.46 µM

Continued, values first:

IC50 | Structure (SMILES)
0.753 µM | O=C(CO)N1CCC(c2[nH]nc(-c3ccc(F)c(F)c3)c2-c2ccncn2)CC1 [Example 60]
0.159 µM | CN(C)CCNc1nccc(-c2c(-c3ccc(Cl)cc3)n[nH]c2C2CCNCC2)n1 [Example 144]
0.297 µM | CSc1nccc(-c2c(-c3ccc(Cl)cc3)n[nH]c2C2CCN(C(=O)COC(C)=O)CC2)n1 [Example 93]
0.848 µM | CC(C)(C)OC(=O)N1CCC(c2[nH]nc(-c3ccc(Cl)cc3)c2-c2ccnc(Oc3ccccc3C#N)n2)CC1 [Example 133]
0.0148 µM | CN1CCC(c2[nH]nc(-c3ccc(Cl)cc3)c2-c2ccnc(NC3CCCC3)n2)CC1 [Example 148]
0.596 µM | C[C@H](O)[C@@H](O)C(=O)N1CCC(c2[nH]nc(-c3ccc(Cl)cc3)c2-c2ccncn2)CC1 [Example 64]
1.59 µM | CC(C)(C)OC(=O)N1CCC(c2[nH]nc(-c3ccc(Cl)cc3)c2-c2ccnc(Oc3cccc(C#N)c3)n2)CC1 [Example 134]
0.0159 µM | Fc1cc(Cl)ccc1-c1n[nH]c(C2CCNCC2)c1-c1ccnc(NC2CCCC2)n1 [Example 147]
0.216 µM | CC(=O)OCC(=O)N1CCC(c2[nH]nc(-c3ccc(Cl)c(Cl)c3)c2-c2ccncn2)CC1 [Example 66]
0.444 µM | Cc1ccc(-c2n[nH]c(C3CCN(C(=O)CO)CC3)c2-c2ccncn2)cc1Cl [Example 71]
0.261 µM | CN(C)CCNc1nccc(-c2c(-c3ccc(F)c(C(F)(F)F)c3)n[nH]c2C2CCNCC2)n1 [Example 146]
1.62 µM | C[C@H](O)C(=O)N1CCC(c2[nH]nc(-c3cc(F)cc(Cl)c3)c2-c2ccncn2)CC1 [Example 108]
0.034 µM | Clc1ccc(-c2n[nH]c(C3CCNCC3)c2-c2ccnc(NC3CCN(Cc4ccccc4)CC3)n2)cc1 [Example 150]
2.71 µM | O=C(CO)N1CCC(c2[nH]nc(-c3cc(F)cc(C(F)(F)F)c3)c2-c2ccncn2)CC1 [Example 101]
1.68 µM | CC(C)(C)OC(=O)N1CCC(c2[nH]nc(-c3ccc(Cl)cc3)c2-c2ccnc(OC3CCCC3)n2)CC1 [Example 131]
0.0697 µM | N#Cc1cccc(Oc2nccc(-c3c(-c4ccc(Cl)cc4)n[nH]c3C3CCN(C(=O)CO)CC3)n2)c1 [Example 96]
0.416 µM | O=C([C@H](O)CO)N1CCC(c2[nH]nc(-c3ccc(Cl)cc3)c2-c2ccncn2)CC1 [Example 63]
0.377 µM | CN(C)CCOc1nccc(-c2c(-c3ccc(Cl)cc3)n[nH]c2C2CCN(C(=O)CO)CC2)n1 [Example 97]
0.764 µM | COCCOCC(=O)N1CCC(c2[nH]nc(-c3ccc(Cl)cc3)c2-c2ccncn2)CC1 [Example 61]
1.1 µM | CN(C)CCNc1nccc(-c2c(-c3ccc(F)c(C(F)(F)F)c3)n[nH]c2C2CCN(C)CC2)n1 [Example 166]
1.5 µM | COc1ccc(-c2n[nH]c(C3CCN(C(=O)CO)CC3)c2-c2ccncn2)cc1 [Example 84]
0.053 µM | O=C(CO)N1CCC(c2[nH]nc(-c3ccc(Cl)cc3)c2-c2ccnc(NC3CCN(Cc4ccccc4)CC3)n2)CC1 [Example 151]
0.01 µM | Clc1ccc(-c2n[nH]c(C3CCNCC3)c2-c2ccnc(NC3CCCC3)n2)cc1 [Example 141]
0.133 µM | O=C(CO)N1CCC(c2[nH]nc(-c3ccc(Cl)c(Cl)c3)c2-c2ccncn2)CC1 [Example 69]
1.75 µM | O=C(CO)N1CCC(c2[nH]nc(-c3cc(F)ccc3F)c2-c2ccncn2)CC1 [Example 87]
0.255 µM | C[C@H](O)C(=O)N1CCC(c2[nH]nc(-c3cc(Cl)ccc3F)c2-c2ccncn2)CC1 [Example 110]
3.16 µM | O=C(CO)N1CCC(c2[nH]nc(-c3ccc(Cl)c(C(F)(F)F)c3)c2-c2ccncn2)CC1 [Example 78]
0.075 µM | CN1CCC(c2[nH]nc(-c3ccc(Cl)cc3)c2-c2ccnc(NC3CCN(Cc4ccccc4)CC3)n2)CC1 [Example 152]
0.527 µM | CN(C)CCOc1nccc(-c2c(-c3ccc(F)c(C(F)(F)F)c3)n[nH]c2C2CCNCC2)n1 [Example 155]
